The subject of test [1] is mice with knee joint OA (PMM). Put plainly: Mechanical allodynia (von Frey) in surgery-induced (PMM) knee OA mice. It is filed as in vivo. The following applies: IA 70 μg/kg twice per week, started at inflammatory pain stage. As for the experimental part: Drugs are intraarticularly injected (twice/week) at 4 weeks after surgery (early OA stage). *p<0.05; **p<0.01; ***p<0.001; ****p<0.0001. PMM=partial medial meniscectomy.
2006; 33(2):348-354; and Kroin J S, et al. Gene. 2016. 10; 591(1): 1-5). Next, outcomes between IA injection of ZD6474 (also known as vandetanib, a selective inhibitor of Flk1, 70 μg/kg, injection frequency: twice per week) and pazopanib (an inhibitor of both Flt1 and Flk1, 70 μg/kg, injection frequency: twice per week) were compared. Twice perweek IA injection of these drugs was started at an inflammatory pain stage (within a week post-surgery) and continued for 12 weeks. After 12 weeks, joints were harvested, histopathological analyses performed, and pathological grading quantified by standard Osteoarthritis Research Society International (OARSI) scoring (1: Healthy, 5: Highly pathologic) (K. O. Vasquez and J. D. Peterson. J Pharmacol Exp Ther 2017, 361:87-98).
Nanoparticles of PEG-PCL (5k-b-6.5k) encapsulating pazopanib were prepared by the flash nanoprecipitation method using a multi-inlet vortex mixer (MIVM) (FIG. 13, nano-PAZ(I)). The resulting composition was intraarticularly injected into the knee joint of mice at the inflammatory pain stage (at one week after OA induction by surgery).

Test [2] concerns mice. The conditions noted are these: cited from earlier work.
Test [3] deals with mice. Put plainly: Mechanical hyperalgesia after intrathecal injection in mice. The test is classed as in vivo. The conditions noted are these: intrathecal (i.t.) injection. The protocol: VEGF-A induces pain hypersensitivity through effects in the peripheral nervous system (PNS) and central nervous system (CNS). IA injection of Flt1 ligand (but not Flk1 ligand) caused mechanical hypersensitivity within 30 min (FIG. 2), showing that Flt1 ligands can directly activate the PNS to induce pain. Additionally, it was reported that animals with chronic OA pain had increased spinal levels of VEGF-A (FIG. 10). […] Given the similar dose (10 ng) and time course of mechanical hyperalgesia following IA injection (FIG. 2) and i.t. injections of VEGF-A (FIG. 11), VEGF signaling appears to be equally able to induce pain hypersensitivity in the PNS and CNS.

Consider `COc1cc2c(Nc3ccc(Br)cc3F)ncnc2cc1OCC1CCN(C)CC1` [ZD6474, vandetanib], for which the “time after start of drug injection at which reduction in OA pain was seen” value in test [1] came out at 5 weeks.

As for “NGF: nerve growth factor, a well-known OA pain mediator”, in the test with mice [2], the “mechanical allodynia after IA injection” value was “acutely increased mechanical allodynia”. Also, in the test with mice [3], the “pain response (mechanical hyperalgesia)” value was “no pain response”.

The values are drawn from patent publication US12678411B2, “Nanoformulations of pazopanib, compositions comprising the same and methods of treating osteoarthritis” (The United States Government as represented by the …, priority 2021, dated 2026).
